This is an account of results in US20200270557A1, “HUMAN IN VITRO ORTHOTOPIC AND METASTATIC MODELS OF CANCER” (PRESIDENT AND FELLOWS OF HARVARD COLLEGE, priority 2017, published 2020).

Test [1] has as its system H1975 NSCLC cells. The experiment in a line: growth inhibition of H1975 NSCLC cells cultured alone under conventional static culture conditions. The test is classed as cell-based. Conditions: Homo sapiens, NCI-H1975, read-out: half-maximal inhibition.
Test [2] deals with H1975 NSCLC cells. As to the kind of experiment: NSCLC cancer cell growth in microfluidic device (orthotopic lung model) with or without breathing motions. It is filed as cell-based, human. Conditions: H1975 NSCLC cells cultured within the microfluidic devices.
Procedure: Primary human lung microvascular endothelial cells were plated the same way as discussed above, except that these cells were plated first with endothelial growth medium. The GFP-labeled NSCLC tumor cells and primary alveolar epithelial cells were then plated using the same method as described above. The following day, the upper microchannel was perfused with epithelial growth medium containing 1 μM dexamethasone and flushed manually for 2-3 days, after which the medium in the upper microchannel was removed to create an air-liquid interface, while the lower microchannel was continuously perfused with air-liquid interface medium at 60 μL/hr. […]
Analysis of cancer cell growth and responses of cancer cells can be monitored visually through the microfluidic device. As discussed above, cancer cell growth can be monitored non-invasively using fluorescence microscopy, such as with a Zeiss TIRF/LSM 710 confocal microscopy and Hamamatsu ImagEM-1K BackThinned EMCCD camera. The number of GFP-labeled cancer cells can be estimated using fluorescence microscopy based on a standard curve generated experimentally that correlates cell density to GFP fluorescence intensity. […]
A further test concerns c-Met. As to the kind of experiment: c-Met expression and phosphorylation in NSCLC cells under cyclic mechanical strain. It is filed as cell-based, human. The source says: Further, many patients with the EGFR […]/T790M mutation who develop resistance to 3rd generation TKIs overexpress the tyrosine protein kinase c-Met, and c-MET overexpression has been implicated as a mechanism of resistance to TKI therapy in NSCLC patients. […] Thus, mechanical breathing motions also may suppress NSCLC cell response to TKI therapy by altering this signaling pathway.

Consider `C#Cc1cccc(Nc2ncnc3cc(OCCOC)c(OCCOC)cc23)c1` [erlotinib], for which, in the test on H1975 NSCLC cells [1], the IC50 was roughly 100 nM. In addition, in the test with H1975 NSCLC cells [2], the “response of NSCLC cells to TKIs” value is reported as “responded”.

Consider `C=CC(=O)Nc1cccc(Nc2nc(Nc3ccc(N4CCN(C(C)=O)CC4)cc3OC)ncc2C(F)(F)F)c1` [rociletinib], for which, in the test with H1975 NSCLC cells [1], the IC50 was greater than 1000 nM. In the test on c-Met, the “effect of increasing dose on expression and phosphorylation of c-Met” value was “no significant effect”.
